Measured values published in patent US20250108038A1 (priority 2023, published 2025).
Like-named read-outs stand apart in the source and are kept apart here.

Assays:
[1] = assay type: physicochemical
Protocol: All conditions and stock preparation procedures were identical to the conditions applied in the transporter assays (Table 74, Table 75 and Table 76). […] A follow-up assay was carried out at 7 concentrations in order to correct the nominal concentrations for the IC50 calculations (Table 78). Where NSB was observed (>20% loss) the assay concentrations were corrected according to the result of the respective NSB assay.
All conditions and stock preparation procedures were identical to the conditions applied in the transporter assays.
Samples (1.5×C0 or Total) were immediately taken after mixing to determine the total initial concentrations. The assay mixes were pre-incubated for 15 minutes at 37° C. and at 32° C. in case of BCRP and MDR1. After the pre-incubation step the assay mixes were 1.5-times diluted with (pre-warmed) transport buffer reaching the final nominal concentrations of the compounds in the VT assay and then were further incubated at 37° C. or 32° C. for BCRP and MDR1 and sampled in the end of incubation (timc).
The aqueous buffer was mixed, and samples (C0 or Total) were immediately taken for determining the total initial concentrations. The helper plate was pre-warmed for 15 minutes at 37° C. The pre-warmed aliquots of the aqueous buffers with the test articles (50 μL) were transferred from the helper plate into the wells of another 96-well plate (assay plate) and incubated for 30 minutes (pre-incubation) then removed from the wells. Thereafter the same wells of the assay plate were dosed again with other aliquots of the aqueous buffers with the test articles and were further incubated in the assay plate at 37° C. and finally sampled (tinc).

[2] = test system: HEK293 uptake transporter overexpressing and control cells; experiment: Resazurin-based cytotoxicity assay
Protocol: The cells were plated on 96-well plates. Prior to the experiment the medium was removed, and cells were rinsed with 2×100 μL of the respective buffer for uptake transporter transfected and control cell lines.

[3] = Transport buffer with sucrose (pH 7.4) for BCRP and MDR1 VT inhibition assay, 32° C., nominal C0 100.00 μM
[4] = MATE1 assay, 12.50 μM, incubation 30 + 3 min
[5] = MATE1 assay, 50.00 μM, incubation 30 + 3 min
[6] = MATE1 assay, 100.00 μM, incubation 30 + 3 min
[7] = MATE2-K assay, 12.50 μM, incubation 30 + 1 min
[8] = MATE2-K assay, 50.00 μM, incubation 30 + 1 min
[9] = MATE2-K assay, 100.00 μM, incubation 30 + 1 min
[10] = OAT1 assay, 12.50 μM, incubation 30 + 2 min
[11] = OAT1 assay, 50.00 μM, incubation 30 + 2 min
[12] = OAT1 assay, 100.00 μM, incubation 30 + 2 min
[13] = OAT3 assay, 12.50 μM, incubation 30 + 1 min
[14] = OAT3 assay, 50.00 μM, incubation 30 + 1 min
[15] = OAT3 assay, 100.00 μM, incubation 30 + 1 min
[16] = OATP1B1 assay, 12.50 μM, incubation 30 + 3 min
[17] = OATP1B1 assay, 50.00 μM, incubation 30 + 3 min
[18] = OATP1B1 assay, 100.00 μM, incubation 30 + 3 min
[19] = OATP1B3 assay, 12.50 μM, incubation 30 + 2 min
[20] = OATP1B3 assay, 50.00 μM, incubation 30 + 2 min
[21] = OATP1B3 assay, 100.00 μM, incubation 30 + 2 min
[22] = OCT1 assay, 12.50 μM, incubation 30 + 3 min
[23] = OCT1 assay, 50.00 μM, incubation 30 + 3 min
[24] = OCT1 assay, 100.00 μM, incubation 30 + 3 min
[25] = OCT2 assay, 12.50 μM, incubation 30 + 1 min
[26] = OCT2 assay, 50.00 μM, incubation 30 + 1 min
[27] = OCT2 assay, 100.00 μM, incubation 30 + 1 min

## Clc1ccc(C2(OCC3OCCO3)c3ccccc3C3=NCCN32)cc1 (centres unmarked) [Compound I-19]
[1]; [3]
  Concentration after incubation (tinc): 124.55 ± 5.96 µM
  Loss of Compound I-19 during the NSB assay: −12%
  Measured dosing concentrations ([…] C0): 167.14 ± 11.84 µM
[1]; pH 7.4
  Concentration after incubation: 0.15 ± 0.01 µM
  Loss of Compound I-19 during the NSB assay: 33%
  Measured dosing concentrations: 0.23 ± 0.02 µM
[1]; pH 8
  Concentration after incubation: 0.10 ± 0.01 µM
  Loss of Compound I-19 during the NSB assay: 41%
  Measured dosing concentrations: 0.17 ± 0.02 µM
[2]; HEK293-MATE1-LV, -MATE2-K-LV, -OAT1-LV, -OAT3-LV, -OATP1B1-LV, -OATP1B3-LV, -OCT1-LV, -OCT2-LV and control cells
  Cell viability (cytotoxic effect): did not reduce the cell viability
[2]; [4]
  Relative cell viability, control cells: 97.67 ± 3.73 % of control
  Relative cell viability, transfected cells: 97.90 ± 1.86 % of control
[2]; [5]
  Relative cell viability, control cells: 93.64 ± 2.83 % of control
  Relative cell viability, transfected cells: 95.88 ± 2.04 % of control
[2]; [6]
  Relative cell viability, control cells: 85.16 ± 2.74 % of control
  Relative cell viability, transfected cells: 97.35 ± 2.64 % of control
[2]; [7]
  Relative cell viability, control cells: 104.66 ± 2.14 % of control
  Relative cell viability, transfected cells: 101.07 ± 1.57 % of control
[2]; [8]
  Relative cell viability, control cells: 104.14 ± 1.46 % of control
  Relative cell viability, transfected cells: 106.73 ± 1.88 % of control
[2]; [9]
  Relative cell viability, control cells: 84.34 ± 2.47 % of control
  Relative cell viability, transfected cells: 101.71 ± 1.17 % of control
[2]; [10]
  Relative cell viability, control cells: 98.64 ± 5.98 % of control
  Relative cell viability, transfected cells: 97.97 ± 3.47 % of control
[2]; [11]
  Relative cell viability, control cells: 97.24 ± 5.90 % of control
  Relative cell viability, transfected cells: 95.01 ± 3.42 % of control
[2]; [12]
  Relative cell viability, control cells: 90.45 ± 6.49 % of control
  Relative cell viability, transfected cells: 88.69 ± 3.44 % of control
[2]; [13]
  Relative cell viability, control cells: 102.06 ± 3.84 % of control
  Relative cell viability, transfected cells: 99.42 ± 0.98 % of control
[2]; [14]
  Relative cell viability, control cells: 92.66 ± 3.32 % of control
  Relative cell viability, transfected cells: 97.87 ± 1.31 % of control
[2]; [15]
  Relative cell viability, control cells: 83.05 ± 3.00 % of control
  Relative cell viability, transfected cells: 97.06 ± 1.13 % of control
[2]; [16]
  Relative cell viability, control cells: 96.78 ± 4.68 % of control
  Relative cell viability, transfected cells: 99.91 ± 0.74 % of control
[2]; [17]
  Relative cell viability, control cells: 93.42 ± 4.34 % of control
  Relative cell viability, transfected cells: 98.71 ± 0.94 % of control
[2]; [18]
  Relative cell viability, control cells: 89.12 ± 4.63 % of control
  Relative cell viability, transfected cells: 94.19 ± 1.27 % of control
[2]; [19]
  Relative cell viability, control cells: 103.94 ± 0.47 % of control
  Relative cell viability, transfected cells: 102.23 ± 1.09 % of control
[2]; [20]
  Relative cell viability, control cells: 101.22 ± 1.01 % of control
  Relative cell viability, transfected cells: 101.42 ± 1.04 % of control
[2]; [21]
  Relative cell viability, control cells: 95.06 ± 1.40 % of control
  Relative cell viability, transfected cells: 97.75 ± 0.86 % of control
[2]; [22]
  Relative cell viability, control cells: 101.25 ± 5.53 % of control
  Relative cell viability, transfected cells: 92.84 ± 3.54 % of control
[2]; [23]
  Relative cell viability, control cells: 98.64 ± 5.26 % of control
  Relative cell viability, transfected cells: 92.82 ± 3.41 % of control
[2]; [24]
  Relative cell viability, control cells: 92.32 ± 6.47 % of control
  Relative cell viability, transfected cells: 86.46 ± 3.25 % of control
[2]; [25]
  Relative cell viability, control cells: 99.87 ± 1.09 % of control
  Relative cell viability, transfected cells: 99.66 ± 1.41 % of control
[2]; [26]
  Relative cell viability, control cells: 97.55 ± 0.85 % of control
  Relative cell viability, transfected cells: 99.58 ± 1.02 % of control
[2]; [27]
  Relative cell viability, control cells: 87.66 ± 0.85 % of control
  Relative cell viability, transfected cells: 96.29 ± 1.73 % of control
[2]; all uptake transporter overexpressing and control cells
  decrease of the relative cell viability compared to solvent (DMSO): less than 20%
